Measurements reported in article PMC6201930 (PLoS ONE, 2018).
“And” between values parts separate entries of the source, which are not always exact repeats. Equal entries are not always repeated. Where two headings read alike, the source gives them in different places.

Legend:
[1] = Cytotoxicity in myoblasts; conditions: mouse, primary mouse myoblasts
Text: (§1) When considering compounds for potential readthrough therapy it is important to monitor cellular and animal safety. In order to determine the most promising compounds to further evaluate in in vivo safety, we measured cytotoxicity in two different cell types. We used activated human peripheral blood mononuclear cells (PBMCs) (Table 2 and Fig 2D and 2E). PBMCs are a primary cell that when activated with phytohaemagglutinin (PHA) expand quickly and are commonly used as an in vitro surrogate for rapidly growing cells in the human body to evaluate cytotoxicity. Prior to advancing compounds into human studies, safety evaluation in rodents is performed. As an in vitro surrogate for rodent toxicity, we used primary mouse myoblasts.

[2] = test system: activated human peripheral blood mononuclear cells (PBMCs); experiment: Cytotoxicity in stimulated PBMCs (CellTitre-Glo ATP); conditions: read-out: Stimulated PBMC CC50, individual determinations (S1 File)
Text: as §1
(§2) Frozen human Peripheral Blood Mononuclear Cells (PBMCs) were obtained from […] (Alameda, CA, Cat# PB003F) from a single donor. […] Plates were incubated at 37°C with 5% CO2 for 4 hours prior to compound treatment. Compounds were serially diluted and added to the plates. Plates were incubated at 37°C, 5% CO2 incubator, for 72 hours prior to determinations of ATP levels. Cell viability was determined using a chemiluminescent assay to monitor adenosine triphosphate (ATP) levels in live cells (CellTitre-Glo; CTG; Promega, Cat#G7571). Methods were performed per the manufacturer’s instructions.

[3] = as above; conditions: human
Text: as §1, §2

[4] = test system: fLuc mRNA harboring a UGA nonsense mutation at codon 190 (fLuc-190-NS); assay type: biochemical, rabbit
Text: ThefLuc-190-NS assay is an in vitro rabbit reticulocyte lysate translation of an fLuc mRNA harboring a UGA nonsense mutation at codon 190 (fLuc-190-NS). It is believed that positively charged aminoglycosides are poorly taken up by cells, and we used this cell-free readthrough assay to eliminate the potential variable of cell uptake when measuring readthrough potency. […] Readthrough protein was detected using a HA-HIS MSD immunoassay described previously.
This cell-free translation assay used synthetic LUC mRNAs harboring an EMCV IRES and LUC codon 190-UGA premature stop codon prepared using the MegaScript in vitro transcription kit (Ambion). Translation reactions were done with the Rabbit Reticulocyte Lysate System (Promega) with 100 ng RNA and increasing concentrations of aminoglycosides. The amount of luminescence produced was determined after approximately 4 hours using a Viewlux CCD imager (Perkin-Elmer). Fold suppression over background was calculated as (aminoglycoside light units/PBS light units).

[5] = test system: tGFP-CFTR542X-HA-HIS construct (codon 542 UGA) in 293H cells; experiment: tGFP-542X readthrough assay (HA-HIS MSD immunoassay); assay type: cell-based, human
[6] = test system: p53 R213* UGA premature termination codon in HDQ-P1 mammary carcinoma cells; experiment: HDQ-p53UGA213 readthrough assay (full-length p53, MSD immunoassay); assay type: cell-based, human; conditions: for HDQ-p53UGA213 (Maxfold): maximum readthrough activity above background
Procedure: We utilized HDQ-P1 mammary carcinoma cells, which are homozygous for R213*, a UGA premature termination codon in the gene for the tumor suppressor protein p53 [30]. […] Western blot hybridization and Meso Scale Discovery (MSD) immunoassay detection of p53 were done as previously described. […] Cells (45K per well) were grown in 96-well plates and treated with compounds for 24 hours. […] Cells were lysed with 60 μl per well of lysis buffer (20 mM Tris-HCL, pH 7.5, 1 mM EGTA, 1 mM EDTA,150 mM Nacl, 0.5% Triton X100) for one hour at room temperature and 30 μl of lysate per well were transferred to the coated plate and incubated overnight at 4 °C. […] Plates were then washed three times with PBS-T and 30 μl of 0.25 μ/ml goat anti-rabbit IgG-Sulfo-tag antibody (MSD) in TBS-C was added and incubated for 1 hour at room temperature. Plates were then washed three times with PBS-T and 150 μl read buffer (MSD) was added. Plates were read immediately in a SECTOR S 600 (MSD).

[7] = Neuromast toxicity assay (DASPEI staining); conditions: zebrafish, zebrafish embryos 5 dpf, neuromasts (hair cells), other: embryos exposed to the drug in 24-well plates
Procedure: All neuromast cytotoxicity assays were done at Biobide–BBD Biophenix SL (Gipuzkoa, Spain). […] Compounds were tested at 5 doses. After 24 hours of exposure embryos were incubated in DASPEI (2-(4-(dimethylamino)styryl) -N-Ethylpyridinium Iodide) for neuromast staining. Images of each embryo were taken and neuromasts counted. A compound was classified as ototoxic when the number of neuromasts in the treated group was less than that in the untreated control group (One Way ANOVA, multiple comparisons vs. vehicle).

[8] = test system: primary mouse myoblasts; experiment: Cytotoxicity in myoblasts; conditions: read-out: Myoblast CC50; individual determinations (S1 File)
Text: as §1

[9] = Myoblast CC50, AVERAGE (S1 File)
[10] = Myoblast CC50, individual determinations (S1 File)
[11] = Stimulated PBMC CC50, AVERAGE (S1 File)
[12] = AVERAGE (S1 File), unit not given for EC5X
[13] = individual experiments (S1 File)
[14] = individual experiments (S1 File), unit not printed for EC5X (EC2X of the sheet in uM)
[15] = 293H cells, 24 hours, average ± SD
[16] = maximum readthrough above background, average ± SD
[17] = concentration required to double the level of full-length p53 protein, average ± SD, at least three experiments, highest concentration 300 μM
[18] = individual experiments (S1 File), max fold
[19] = Neuromast CC50, AVERAGE (S1 File)
[20] = Neuromast CC50, individual determinations (S1 File)
[21] = individual experiments (S1 File), listed as PTC-0302307 (C1)
[22] = individual experiments (S1 File), unit not printed for EC5X (EC2X of the sheet in uM), listed as PTC-0302307 (C1)

| Structure (SMILES) | fLuc-190-NS EC2X ([4]; AVERAGE (S1 File)) [µM] | fLuc-190-NS MaxFold ([4]; AVERAGE (S1 File)) | fLuc-190-NS EC5X [4, 12] | fLuc-190-NS EC2X ([4]; cell-free, average ± SD) [µM] | fLuc-190-NS MaxFold ([4]; cell-free, average ± SD) [fold] | fLuc-190-NS EC2X [4, 13] | fLuc-190-NS MaxFold [4, 13] | fLuc-190-NS EC5X [4, 14] | tGFP-542X EC2X [5, 15] [µM] | tGFP-542X EC2X ([5]; AVERAGE (S1 File)) [µM] | tGFP-542X Maxfold ([5]; AVERAGE (S1 File)) | tGFP-542X EC2X [5, 13] | tGFP-542X Maxfold [5, 13] | tGFP-542X EC5X [5, 14] | tGFP-542X Maxfold [5, 16] [fold] | HDQ-p53UGA213 EC2X ([6]; AVERAGE (S1 File)) [µM] | HDQ-p53UGA213 max ([6]; AVERAGE (S1 File)) | HDQ-p53UGA213 EC2X [6, 17] [µM] | HDQ-p53UGA213 (Maxfold) ([6]; average ± SD) [fold] | CC50 at 24 h [7, 19] [mM] | also measured |
| --- | --- | --- | --- | --- | --- | --- | --- | --- | --- | --- | --- | --- | --- | --- | --- | --- | --- | --- | --- | --- | --- |
| CN[C@@H]1[C@@H](O)[C@@H](O[C@@H]2[C@@H](O)[C@H](O[C@H]3O[C@H](CO)[C@@H](O)[C@H](O)[C@H]3N)[C@@H](N)C[C@H]2N)OC[C@H]1O [Gentamicin A, gentamicin A] | 0.45 | 6.7 | 2.0 | 0.45 ± 0.015 | 6.7 ± 0.4 | 0.44 µM and 0.47 µM and 0.45 µM | 6.38 and 6.62 and 7.20 | 1.95 and 2.14 | 385 ± 123 | 385.2 | 3.8 | 490.42 µM and 415.81 µM and 249.27 µM | 3.32 and 4.14 and 3.99 | >1000 | 4 ± 0.4 | 585.5 | 2.7 | 586 ± 100 | 3 ± 0.4 | 0.017 | CC50 [1, 9]: 6.21 mM; CC50 [1, 10]: 6.21 mM; CC50 [2]: > 1.25 mM and 3.62 mM; CC50 at 72 h [3, 11]: 3.62 mM; HDQ-p53UGA213 EC2X [6, 13]: 658.30 µM and 626.86 µM and 471.32 µM; HDQ-p53UGA213 max [6, 18]: 2.50 and 3.24 and 2.45; CC50 at 24 h [7, 20]: 0.017 mM |
| CN[C@@H]1[C@@H](O)[C@@H](O[C@@H]2[C@@H](O)[C@H](O[C@H]3O[C@H]([C@@H](C)NC)CC[C@H]3N)[C@@H](N)C[C@H]2N)OC[C@]1(C)O [Gentamicin C1, gentamicin C1] | 1.1 | 18.9 | 2.6 | 1.061 ± 0.262 | 19 ± 2 | – | – | – | 439 ± 192 | 439.1 | 3.4 | – | – | – | 3 ± 2 | 311.4 | 4.8 | 311 ± 321 | 5 ± 3 | 0.0094 | CC50 ([2]; listed as PTC-0302307 (C1)): > 1 mM; CC50 at 72 h ([3]; Stimulated PBMC CC50, individual determinations (S1 File)): > 1.25 mM; fLuc-190-NS EC2X [4, 21]: 1.36 µM and 0.90 µM and 0.92 µM; fLuc-190-NS MaxFold [4, 21]: 18.25 and 17.61 and 20.78; fLuc-190-NS EC5X [4, 22]: 2.89 and 2.68 and 2.37; tGFP-542X EC5X [5, 12]: 825.7; tGFP-542X EC2X [5, 21]: 303 µM and 575 µM and >1000 µM; tGFP-542X Maxfold [5, 21]: 6 and 2 and 1.70; tGFP-542X EC5X [5, 22]: 826 and >1000; HDQ-p53UGA213 EC2X ([6]; concentration required to double the level of full-length p53 protein, average ± SD, at least three experiments, highest concentration 300 μM, listed as C1): triple digit; HDQ-p53UGA213 EC2X [6, 21]: 74.03 µM and 776.89 µM and 269.47 µM and 125.28 µM; HDQ-p53UGA213 max ([6]; individual experiments (S1 File), max fold, listed as PTC-0302307 (C1)): 6.40 and 2.10 and 2.50 and 8.00; CC50 at 24 h [7, 20]: 0.0094 mM |
| CN[C@@H]1[C@@H](O)[C@@H](O[C@@H]2[C@@H](O)[C@H](O[C@H]3O[C@H]([C@@H](C)N)CC[C@H]3N)[C@@H](N)C[C@H]2N)OC[C@]1(C)O [Gentamicin C2, gentamicin C2] | 1.1 | 97.2 | 1.9 | 1.086 ± 0.763 | 97 ± 12 | 1.97 µM and 0.62 µM and 0.67 µM | 84.91 and 97.65 and 109.15 | 2.76 and 1.44 and 1.41 | 266 ± 44 | 265.9 | 8.9 | 225 µM and 260 µM and 312.48 µM | 11 and 9 and 7.29 | 566 and 647 and 748.53 | 9 ± 2 | 141.9 | 5.8 | 142 ± 86 | 6 ± 5 | 0.0028 | CC50 [8]: 6.1 mM and 4.31 mM and 0.911 mM; CC50 [1, 9]: 3.78 mM; CC50 [2]: 3.8 mM and 0.566 mM; CC50 at 72 h [3, 11]: 2.18 mM; tGFP-542X EC5X [5, 12]: 653.9; HDQ-p53UGA213 EC2X ([6]; concentration required to double the level of full-length p53 protein, average ± SD, at least three experiments, highest concentration 300 μM, listed as C2): triple digit; HDQ-p53UGA213 EC2X [6, 13]: 34.99 µM and 16.61 µM and 97.73 µM and 112.3 µM and 133.88 µM and 91.16 µM and 121.67 µM and 256.3 µM and 179.64 µM and 255.57 µM and 260.59 µM; HDQ-p53UGA213 max [6, 18]: 4.1 and 15.8 and 4 and 3.2 and 5.2 and 3.9 and 2.4 and 15.7 and 3.5 and 3; CC50 at 24 h [7, 20]: 0.0028 mM |
| CN[C@@H]1[C@@H](O)[C@@H](O[C@@H]2[C@@H](O)[C@H](O[C@H]3O[C@H]([C@H](C)N)CC[C@H]3N)[C@@H](N)C[C@H]2N)OC[C@]1(C)O [Gentamicin C2a, gentamicin C2a] | 1.1 | 32.1 | 2.8 | 1.077 ± 0.029 | 32 ± 5 | 1.08 µM and 1.10 µM and 1.05 µM | 26.96 and 33.13 and 36.29 | 2.91 and 2.75 and 2.60 | 583 ± 110 | 582.8 | 2.8 | 691 µM and 586 µM and 471.89 µM | 2.62 and 2.35 and 3.32 | >1000 | 3 ± 0.5 | 251.7 | 4.2 | 252 ± 49 | 4 ± 1 | 0.0027 | CC50 [1, 9]: 5.68 mM; CC50 [1, 10]: 4.64 mM; CC50 [2]: > 1.25 mM; CC50 at 72 h [3, 11]: 6.71 mM; HDQ-p53UGA213 EC2X ([6]; concentration required to double the level of full-length p53 protein, average ± SD, at least three experiments, highest concentration 300 μM, listed as C2a): triple digit; HDQ-p53UGA213 EC2X [6, 13]: 217.36 µM and 286.09 µM; HDQ-p53UGA213 max [6, 18]: 3.40 and 5.00; CC50 at 24 h [7, 20]: 0.0027 mM |
| CN[C@@H]1[C@@H](O)[C@@H](O[C@@H]2[C@@H](O)[C@H](O[C@H]3OC(CN)=CC[C@H]3N)[C@@H](N)C[C@H]2N)OC[C@]1(C)O [Sisomycin] | 2.6 | 4.0 | – | 2.596 ± 0.428 | 4 ± 0.5 | 2.96 µM and 2.70 µM and 2.13 µM | 3.55 and 3.95 and 4.47 | >30 | >1000 | – | 1.3 | >1000 µM | 1.27 and 1.38 and 1.37 | >1000 | 1 ± 0.1 | – | – | – | – | – | – |
